Measured values: patent US20230183193A1, “4-DIFLUOROMETHYL BENZOYL AMIDES WITH HERBICIDAL ACTION” (BAYER CROPSCIENCE AKTIENGESELLSCHAFT, priority 2017, published 2023)

Columns and labels:
Format in all cases: in vivo
[1] = system: Matricaria inodora; assay: Pre-emergence herbicidal action, MATIN; settings: dosage 320 g/ha, scored visually after 3 weeks vs untreated controls
Outline: (§1)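 Percent herbicidal activity rated by eye 3 weeks after pre-emergence soil-surface application, compared with untreated pots. Seeds sat under sandy loam; sprays carried 0.2% wetting agent.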

[2] = system: Viola tricolor; assay: Pre-emergence herbicidal action, VIOTR; settings: dosage 320 g/ha, scored visually after 3 weeks vs untreated controls
Outline: as §1

[3] = system: Abutilon theophrasti; assay: Pre-emergence herbicidal action, ABUTH; settings: dosage 320 g/ha, scored visually after 3 weeks vs untreated controls
Outline: as §1

[4] = system: Setaria viridis; assay: Post-emergence herbicidal action, SETVI; settings: 80 g/ha, Table C
Outline: (§2)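 Greenhouse-grown weeds in sandy loam, treated at the one-leaf stage 2 to 3 weeks after sowing with WP or EC formulations sprayed as aqueous suspension/emulsion at 600 to […] water plus 0.2% wetting agent. Visual scoring after about 3 weeks versus untreated controls, 0% (like control) to 100% (plants dead).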

[5] = system: Stellaria media; assay: Pre-emergence herbicidal action, STEME; settings: dosage 320 g/ha, scored visually after 3 weeks vs untreated controls
Outline: as §1

[6] = system: Avena fatua; assay: Post-emergence herbicidal action, AVEFA; settings: 80 g/ha, Table C
Outline: as §2

[7] = system: Abutilon theophrasti; assay: Post-emergence herbicidal action, ABUTH; settings: 80 g/ha, Table D
Outline: as §2

[8] = system: Pharbitis purpureum; assay: Post-emergence herbicidal action, PHBPU; settings: 80 g/ha, Table D
Outline: as §2

[9] = system: Setaria viridis; assay: Pre-emergence herbicidal action, SETVI; settings: dosage 320 g/ha, scored visually after 3 weeks vs untreated controls
Outline: as §1

[10] = system: Viola tricolor; assay: Post-emergence herbicidal action, VIOTR; settings: 80 g/ha, Table D
Outline: as §2

[11] = system: Amaranthus retroflexus; assay: Post-emergence herbicidal action, AMARE; settings: 80 g/ha, Table D
Outline: as §2

[12] = system: Alopecurus myosuroides; assay: Post-emergence herbicidal action, ALOMY; settings: 80 g/ha, Table C
Outline: as §2

[13] = system: Cyperus serotinus; assay: Pre-emergence herbicidal action, CYPES; settings: dosage 320 g/ha, scored visually after 3 weeks vs untreated controls
Outline: as §1

[14] = system: Alopecurus myosuroides; assay: Pre-emergence herbicidal action, ALOMY; settings: dosage 320 g/ha, scored visually after 3 weeks vs untreated controls
Outline: as §1

[15] = system: Stellaria media; assay: Post-emergence herbicidal action, STEME; settings: 80 g/ha, Table D
Outline: as §2

[16] = system: ECHCG; assay: Post-emergence herbicidal action, ECHCG; settings: 80 g/ha, Table C
Outline: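 Weed and crop plants grown in sandy loam in the greenhouse, treated at the one-leaf stage 2–3 weeks after sowing. Damage scored visually after about 3 weeks vs untreated controls (0% = control, 100% = dead).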

[17] = system: Amaranthus retroflexus; assay: Pre-emergence herbicidal action, AMARE; settings: dosage 320 g/ha, scored visually after 3 weeks vs untreated controls
Outline: as §1

[18] = system: Avena fatua; assay: Pre-emergence herbicidal action, AVEFA; settings: dosage 320 g/ha, scored visually after 3 weeks vs untreated controls
Outline: as §1

With `CCc1c(C(=O)Nc2nnnn2C)ccc(C(F)F)c1[S+]([O-])CC` (stereo not drawn) [Example 1-17] the “herbicidal activity MATIN” value [1] was 100%, the “herbicidal activity VIOTR” value [2] was 100% and the “herbicidal activity ABUTH” value [3] was 100%. For the same compound, the “herbicidal activity SETVI” value [4] was 90%, the “Herbicidal activity STEME” value [5] was 100% and the “herbicidal activity AVEFA” value [6] was 90%. The “herbicidal activity ABUTH” value [7] was 100%, the “Herbicidal activity PHBPU” value [8] was 90% and the “herbicidal activity SETVI” value [9] was 100%. For the same compound, the “herbicidal activity VIOTR” value [10] was 100%, the “herbicidal activity AMARE” value [11] was 100% and the “herbicidal activity ALOMY” value [12] was 90%. The “herbicidal activity CYPES” value [13] was 100%, the “herbicidal activity ALOMY” value [14] was 100% and the “Herbicidal activity STEME” value [15] was 100%. For the same compound, the “Herbicidal activity ECHCG” value [16] was 90%, the “herbicidal activity AMARE” value [17] was 100% and the “herbicidal activity AVEFA” value [18] was 100%.
With `CCc1c(C(=O)Nc2nnc(C)o2)ccc(C(F)F)c1[S+]([O-])CC` (stereo not drawn) [Example 7-15] the “herbicidal activity MATIN” value [1] was 100%, the “herbicidal activity VIOTR” value [2] was 100% and the “herbicidal activity ABUTH” value [3] was 100%. For the same compound, the “herbicidal activity SETVI” value [4] was 100%, the “Herbicidal activity STEME” value [5] was 100% and the “herbicidal activity AVEFA” value [6] was 100%. The “herbicidal activity ABUTH” value [7] was 100%, the “Herbicidal activity PHBPU” value [8] was 90% and the “herbicidal activity SETVI” value [9] was 100%. The “herbicidal activity VIOTR” value [10] was 100%, the “herbicidal activity AMARE” value [11] was 100% and the “herbicidal activity ALOMY” value [12] was 90%. The “herbicidal activity CYPES” value [13] was 100%, the “herbicidal activity ALOMY” value [14] was 100% and the “Herbicidal activity STEME” value [15] was 100%. The “Herbicidal activity ECHCG” value [16] was 90%, the “herbicidal activity AMARE” value [17] was 100% and the “herbicidal activity AVEFA” value [18] was 100%.
In the case of `CCn1nnnc1NC(=O)c1ccc(C(F)F)c(SC)c1C1CC1` [Example 2-25], the “herbicidal activity MATIN” value [1] is reported as 100%, the “herbicidal activity VIOTR” value [2] is reported as 100% and the “herbicidal activity ABUTH” value [3] is reported as 100%. The “herbicidal activity SETVI” value [4] was 100%, the “Herbicidal activity STEME” value [5] was 100% and the “herbicidal activity AVEFA” value [6] was 100%. For the same compound, the “herbicidal activity ABUTH” value [7] was 100%, the “Herbicidal activity PHBPU” value [8] was 100% and the “herbicidal activity SETVI” value [9] was 100%. For the same compound, the “herbicidal activity VIOTR” value [10] was 100%, the “herbicidal activity AMARE” value [11] was 100% and the “herbicidal activity ALOMY” value [12] was 100%. For the same compound, the “herbicidal activity CYPES” value [13] was 100%, the “herbicidal activity ALOMY” value [14] was 100% and the “Herbicidal activity STEME” value [15] was 100%. The “Herbicidal activity ECHCG” value [16] was 100%, the “herbicidal activity AMARE” value [17] was 100% and the “herbicidal activity AVEFA” value [18] was 100%.
For `CCS(=O)(=O)c1c(C(F)F)ccc(C(=O)Nc2nnnn2C)c1C` [Example 1-6], the “herbicidal activity MATIN” value [1] was 100%, the “herbicidal activity VIOTR” value [2] was 100% and the “herbicidal activity ABUTH” value [3] was 100%. For the same compound, the “herbicidal activity SETVI” value [4] was 100%, the “Herbicidal activity STEME” value [5] was 100% and the “herbicidal activity AVEFA” value [6] was 100%. For the same compound, the “herbicidal activity ABUTH” value [7] was 90%, the “Herbicidal activity PHBPU” value [8] was 100% and the “herbicidal activity SETVI” value [9] was 100%. For the same compound, the “herbicidal activity VIOTR” value [10] was 100%, the “herbicidal activity AMARE” value [11] was 100% and the “herbicidal activity ALOMY” value [12] was 100%. For the same compound, the “herbicidal activity CYPES” value [13] was 100%, the “herbicidal activity ALOMY” value [14] was 100% and the “Herbicidal activity STEME” value [15] was 100%. The “Herbicidal activity ECHCG” value [16] was 100%, the “herbicidal activity AMARE” value [17] was 100% and the “herbicidal activity AVEFA” value [18] was 100%.
With `Cn1nnnc1NC(=O)c1ccc(C(F)F)c(S(C)(=O)=O)c1C1CC1` [Example 1-27] the “herbicidal activity MATIN” value [1] was 100%, the “herbicidal activity VIOTR” value [2] was 100% and the “herbicidal activity ABUTH” value [3] was 100%. For the same compound, the “herbicidal activity SETVI” value [4] was 100%, the “Herbicidal activity STEME” value [5] was 100% and the “herbicidal activity AVEFA” value [6] was 100%. The “herbicidal activity ABUTH” value [7] was 100%, the “Herbicidal activity PHBPU” value [8] was 90% and the “herbicidal activity SETVI” value [9] was 100%. The “herbicidal activity VIOTR” value [10] was 100%, the “herbicidal activity AMARE” value [11] was 100% and the “herbicidal activity ALOMY” value [12] was 100%. The “herbicidal activity CYPES” value [13] was 100%, the “herbicidal activity ALOMY” value [14] was 100% and the “Herbicidal activity STEME” value [15] was 100%. For the same compound, the “Herbicidal activity ECHCG” value [16] was 100%, the “herbicidal activity AMARE” value [17] was 100% and the “herbicidal activity AVEFA” value [18] was 100%.
In the case of `CCn1nnnc1NC(=O)c1ccc(C(F)F)c([S+](C)[O-])c1Br` (stereo not drawn) [Example 2-62], the “herbicidal activity MATIN” value [1] is reported as 100%, the “herbicidal activity VIOTR” value [2] is reported as 100% and the “herbicidal activity ABUTH” value [3] is reported as 100%. For the same compound, the “herbicidal activity SETVI” value [4] was 100%, the “Herbicidal activity STEME” value [5] was 100% and the “herbicidal activity AVEFA” value [6] was 100%. The “herbicidal activity ABUTH” value [7] was 100%, the “Herbicidal activity PHBPU” value [8] was 100% and the “herbicidal activity SETVI” value [9] was 100%. The “herbicidal activity VIOTR” value [10] was 100%, the “herbicidal activity AMARE” value [11] was 100% and the “herbicidal activity ALOMY” value [12] was 90%. For the same compound, the “herbicidal activity CYPES” value [13] was 100%, the “herbicidal activity ALOMY” value [14] was 100% and the “Herbicidal activity STEME” value [15] was 100%. The “Herbicidal activity ECHCG” value [16] was 100%, the “herbicidal activity AMARE” value [17] was 100% and the “herbicidal activity AVEFA” value [18] was 100%.
With `CCn1nnnc1NC(=O)c1ccc(C(F)F)c(S(C)(=O)=O)c1C` [Example 2-3] the “herbicidal activity MATIN” value [1] was 100%, the “herbicidal activity VIOTR” value [2] was 100% and the “herbicidal activity ABUTH” value [3] was 100%. For the same compound, the “herbicidal activity SETVI” value [4] was 100%, the “Herbicidal activity STEME” value [5] was 90% and the “herbicidal activity AVEFA” value [6] was 90%. For the same compound, the “herbicidal activity ABUTH” value [7] was 80%, the “Herbicidal activity PHBPU” value [8] was 100% and the “herbicidal activity SETVI” value [9] was 100%. The “herbicidal activity VIOTR” value [10] was 100%, the “herbicidal activity AMARE” value [11] was 80% and the “herbicidal activity ALOMY” value [12] was 80%. For the same compound, the “herbicidal activity CYPES” value [13] was 100%, the “herbicidal activity ALOMY” value [14] was 90% and the “Herbicidal activity STEME” value [15] was 100%. The “Herbicidal activity ECHCG” value [16] was 90%, the “herbicidal activity AMARE” value [17] was 100% and the “herbicidal activity AVEFA” value [18] was 100%.
For `CCS(=O)(=O)c1c(C(F)F)ccc(C(=O)Nc2nnnn2C)c1Cl` [Example 1-54], the “herbicidal activity MATIN” value [1] was 100%, the “herbicidal activity VIOTR” value [2] was 100% and the “herbicidal activity ABUTH” value [3] was 100%. For the same compound, the “herbicidal activity SETVI” value [4] was 100%, the “Herbicidal activity STEME” value [5] was 100% and the “herbicidal activity AVEFA” value [6] was 100%. The “herbicidal activity ABUTH” value [7] was 100%, the “Herbicidal activity PHBPU” value [8] was 100% and the “herbicidal activity SETVI” value [9] was 100%. The “herbicidal activity VIOTR” value [10] was 100%, the “herbicidal activity AMARE” value [11] was 100% and the “herbicidal activity ALOMY” value [12] was 90%. For the same compound, the “herbicidal activity CYPES” value [13] was 100%, the “herbicidal activity ALOMY” value [14] was 100% and the “Herbicidal activity STEME” value [15] was 100%. For the same compound, the “Herbicidal activity ECHCG” value [16] was 90%, the “herbicidal activity AMARE” value [17] was 100% and the “herbicidal activity AVEFA” value [18] was 100%.
